Measurements published in the supplement of paper PMC10307832.

Experiments:
Assay in all cases: relative viability (nuclei count vs DMSO), 5 days (fraction); higher = more cells survive
[1] = system: NCI-H661
Summary of the method: (§1)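 Lung cancer cell lines were seeded in 1536-well plates and dosed by pin tool the next day, with either a single drug or a fixed anchor-drug dose combined with five library-drug doses (not always all listed) spaced in √10 steps. Five days later, one step fixed the cells and stained their nuclei (final 0.05% Triton X-100, 1% formaldehyde, 1 ug/ml Hoechst), and nuclei were counted on 4× images. Relative viability is the nuclei count in treated wells divided by the count in vehicle wells, and each value is the median of duplicate plates.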

[2] = system: EBC-1
Summary of the method: as §1

[3] = system: IA-LM
Summary of the method: as §1

[4] = system: NCI-H1299
Summary of the method: as §1

[5] = system: NCI-H1703
Summary of the method: as §1

[6] = system: A549
Summary of the method: as §1

[7] = system: Calu-6
Summary of the method: as §1

SMILES | relative viability ([1]; first compound 0.1265 µM) | relative viability ([1]; first compound 0.4 µM) | relative viability ([1]; first compound 4 µM) | relative viability ([2]; first compound 0.04 µM) | relative viability ([2]; first compound 0.1265 µM) | relative viability ([2]; first compound 0.4 µM) | relative viability ([2]; first compound 4 µM) | relative viability ([3]; first compound 0.04 µM) | relative viability ([3]; first compound 0.1265 µM) | relative viability ([3]; first compound 0.4 µM) | relative viability ([3]; first compound 4 µM) | relative viability ([4]; first compound 0.04 µM) | relative viability ([4]; first compound 0.1265 µM) | relative viability ([4]; first compound 0.4 µM) | relative viability ([4]; first compound 4 µM) | relative viability ([5]; first compound 0.04 µM) | relative viability ([5]; first compound 0.4 µM) | relative viability ([5]; first compound 4 µM) | relative viability ([6]; first compound 0.04 µM) | relative viability ([6]; first compound 0.1265 µM) | other results
COc1cc(N2CCC(C(N)=O)CC2)ccc1Nc1nc(N)c(Cl)c(Nc2ccccc2S(=O)(=O)C(C)C)n1 [HG-5-88-01] + CS(=O)(=O)CCNCc1ccc(-c2ccc3ncnc(Nc4ccc(OCc5cccc(F)c5)c(Cl)c4)c3c2)o1 [Lapatinib] (partner 2 µM) | 0.518 | 0.487 | 0.542 | 0.221 | 0.22 | 0.209 | 0.195 | 0.891 | 0.864 | 0.721 | 0.404 | 0.914 | 0.983 | 0.87 | 0.963 | 0.832 | 1.22 | 0.619 | 0.984 | 0.917 | relative viability ([1]; first compound 0.04 µM): 0.505; relative viability ([2]; first compound 1.265 µM): 0.21; relative viability ([3]; first compound 1.265 µM): 0.712; relative viability ([4]; first compound 1.265 µM): 1.05; relative viability ([5]; first compound 0.1265 µM): 1.15; relative viability ([5]; first compound 1.265 µM): 1.08; relative viability ([6]; first compound 0.4 µM): 0.845; relative viability ([6]; first compound 1.265 µM): 0.573; relative viability ([6]; first compound 4 µM): 0.411; relative viability ([7]; first compound 0.04 µM): 1.11; relative viability ([7]; first compound 0.1265 µM): 1.05; relative viability ([7]; first compound 0.4 µM): 1.19; relative viability ([7]; first compound 1.265 µM): 1.04; relative viability ([7]; first compound 4 µM): 0.774
COc1cc(N2CCC(C(N)=O)CC2)ccc1Nc1nc(N)c(Cl)c(Nc2ccccc2S(=O)(=O)C(C)C)n1 [HG-5-88-01] + CS(=O)(=O)N1CCN(Cc2cc3nc(-c4cccc5[nH]ncc45)nc(N4CCOCC4)c3s2)CC1 [Pictilisib] (partner 1 µM) | 0.477 | 0.469 | 0.418 | 0.394 | 0.362 | 0.339 | 0.217 | 0.398 | 0.252 | 0.244 | 0.145 | 0.745 | 0.724 | 0.725 | 0.682 | 0.217 | 0.228 | 0.226 | 0.482 | 0.495 | relative viability ([1]; first compound 0.04 µM): 0.43; relative viability ([2]; first compound 1.265 µM): 0.324; relative viability ([3]; first compound 1.265 µM): 0.172; relative viability ([4]; first compound 1.265 µM): 0.643; relative viability ([5]; first compound 0.1265 µM): 0.223; relative viability ([5]; first compound 1.265 µM): 0.222; relative viability ([6]; first compound 0.4 µM): 0.389; relative viability ([6]; first compound 1.265 µM): 0.323; relative viability ([6]; first compound 4 µM): 0.237; relative viability ([7]; first compound 0.04 µM): 0.942; relative viability ([7]; first compound 0.1265 µM): 0.869; relative viability ([7]; first compound 0.4 µM): 0.848; relative viability ([7]; first compound 1.265 µM): 0.824; relative viability ([7]; first compound 4 µM): 0.698
CC(C)Oc1cc(Nc2nc(N[C@@H](C)c3ccc(F)cn3)ncc2Cl)n[nH]1 [AZ23] + CS(=O)(=O)N1CCN(Cc2cc3nc(-c4cccc5[nH]ncc45)nc(N4CCOCC4)c3s2)CC1 [Pictilisib] (partner 1 µM) | – | – | – | – | – | – | – | – | – | – | – | – | – | – | – | – | – | – | – | – | relative viability ([1]; first compound 0.01 µM): 0.402; relative viability ([1]; first compound 0.03162 µM): 0.446; relative viability ([1]; first compound 0.3162 µM): 0.423; relative viability ([2]; first compound 0.01 µM): 0.312; relative viability ([2]; first compound 0.03162 µM): 0.397; relative viability ([2]; first compound 0.3162 µM): 0.345; relative viability ([3]; first compound 0.01 µM): 0.403; relative viability ([3]; first compound 0.03162 µM): 0.334; relative viability ([3]; first compound 0.3162 µM): 0.419; relative viability ([4]; first compound 0.03162 µM): 0.954; relative viability ([4]; first compound 0.3162 µM): 1.13; relative viability ([5]; first compound 0.03162 µM): 0.291; relative viability ([5]; first compound 0.3162 µM): 0.218; relative viability ([6]; first compound 0.01 µM): 0.586; relative viability ([6]; first compound 0.03162 µM): 0.676; relative viability ([6]; first compound 0.3162 µM): 0.416; relative viability ([7]; first compound 0.01 µM): 0.883; relative viability ([7]; first compound 0.03162 µM): 1.13; relative viability ([7]; first compound 0.3162 µM): 0.986
C[C@@H]1CN(CC(=O)Nc2ccc3c(c2)Cc2cccc(-c4cc(=O)cc(N5CCOCC5)o4)c2S3)C[C@H](C)O1 + C[C@@H](Oc1cc(-c2cnn(C3CCNCC3)c2)cnc1N)c1c(Cl)ccc(F)c1Cl [Crizotinib] (partner 1 µM) | 1.01 | 1.02 | 0.885 | 0.202 | 0.203 | 0.201 | 0.2 | 1.02 | 0.671 | 0.657 | 0.36 | 0.915 | 0.92 | 0.844 | 0.837 | 0.607 | 0.595 | 0.513 | 0.909 | 0.772 | relative viability ([1]; first compound 0.04 µM): 1.07; relative viability ([5]; first compound 0.1265 µM): 0.678; relative viability ([6]; first compound 0.4 µM): 0.874; relative viability ([6]; first compound 4 µM): 0.522; relative viability ([7]; first compound 0.04 µM): 0.829; relative viability ([7]; first compound 0.1265 µM): 0.719; relative viability ([7]; first compound 0.4 µM): 0.597; relative viability ([7]; first compound 4 µM): 0.528
COc1cc(N2CCC(C(N)=O)CC2)ccc1Nc1nc(N)c(Cl)c(Nc2ccccc2S(=O)(=O)C(C)C)n1 [HG-5-88-01] + Cc1nc(NC(=O)N2CCC[C@H]2C(N)=O)sc1-c1ccnc(C(C)(C)C(F)(F)F)c1 [Alpelisib] (partner 2 µM) | 0.773 | 0.916 | 0.693 | 0.876 | 0.98 | 0.795 | 0.86 | 0.722 | 1 | 0.627 | 0.503 | 1.04 | 1.09 | 0.972 | 1.12 | 0.265 | 0.38 | 0.399 | 0.925 | 0.715 | relative viability ([1]; first compound 0.04 µM): 0.609; relative viability ([2]; first compound 1.265 µM): 0.768; relative viability ([3]; first compound 1.265 µM): 0.447; relative viability ([4]; first compound 1.265 µM): 1.05; relative viability ([5]; first compound 0.1265 µM): 0.317; relative viability ([5]; first compound 1.265 µM): 0.303; relative viability ([6]; first compound 0.4 µM): 0.698; relative viability ([6]; first compound 1.265 µM): 0.474; relative viability ([6]; first compound 4 µM): 0.527; relative viability ([7]; first compound 0.04 µM): 1.02; relative viability ([7]; first compound 0.1265 µM): 1.01; relative viability ([7]; first compound 0.4 µM): 0.908; relative viability ([7]; first compound 1.265 µM): 0.856; relative viability ([7]; first compound 4 µM): 0.885
Clc1ccc(Nc2nnc(Cc3ccncc3)c3ccccc23)cc1 [Vatalanib] + Cc1nc(NC(=O)N2CCC[C@H]2C(N)=O)sc1-c1ccnc(C(C)(C)C(F)(F)F)c1 [Alpelisib] (partner 2 µM) | 0.557 | 0.717 | 0.519 | 0.842 | 0.698 | 0.82 | 0.852 | 0.747 | 0.754 | 0.715 | 0.918 | 1.02 | 1.08 | 1.05 | 1.04 | 0.327 | 0.395 | 0.212 | 0.795 | 0.758 | relative viability ([1]; first compound 0.04 µM): 0.617; relative viability ([1]; first compound 1.265 µM): 0.653; relative viability ([2]; first compound 1.265 µM): 0.856; relative viability ([3]; first compound 1.265 µM): 0.797; relative viability ([4]; first compound 1.265 µM): 1.02; relative viability ([5]; first compound 1.265 µM): 0.235; relative viability ([6]; first compound 0.4 µM): 0.922; relative viability ([6]; first compound 1.265 µM): 0.694; relative viability ([6]; first compound 4 µM): 0.707; relative viability ([7]; first compound 0.04 µM): 1.09; relative viability ([7]; first compound 0.1265 µM): 0.95; relative viability ([7]; first compound 0.4 µM): 1.08; relative viability ([7]; first compound 1.265 µM): 0.958; relative viability ([7]; first compound 4 µM): 0.938
C[C@@H]1CN(CC(=O)Nc2ccc3c(c2)Cc2cccc(-c4cc(=O)cc(N5CCOCC5)o4)c2S3)C[C@H](C)O1 + Cc1nc(NC(=O)N2CCC[C@H]2C(N)=O)sc1-c1ccnc(C(C)(C)C(F)(F)F)c1 [Alpelisib] (partner 2 µM) | 0.741 | 0.526 | 0.489 | 0.905 | 0.826 | 0.386 | 0.506 | 0.884 | 0.801 | 0.895 | 0.387 | 1.02 | 1.05 | 1.05 | 1.02 | 0.426 | 0.299 | 0.277 | 0.776 | 0.753 | relative viability ([5]; first compound 0.1265 µM): 0.33; relative viability ([6]; first compound 0.4 µM): 0.826; relative viability ([6]; first compound 4 µM): 0.457; relative viability ([7]; first compound 0.04 µM): 1.03; relative viability ([7]; first compound 0.1265 µM): 1.03; relative viability ([7]; first compound 0.4 µM): 0.97; relative viability ([7]; first compound 4 µM): 0.79
CC(C)Oc1cc(Nc2nc(N[C@@H](C)c3ccc(F)cn3)ncc2Cl)n[nH]1 [AZ23] + C[C@@H](Oc1cc(-c2cnn(C3CCNCC3)c2)cnc1N)c1c(Cl)ccc(F)c1Cl [Crizotinib] (partner 1 µM) | – | – | – | – | – | – | – | – | – | – | – | – | – | – | – | – | – | – | – | – | relative viability ([1]; first compound 0.01 µM): 1.1; relative viability ([1]; first compound 0.03162 µM): 1.19; relative viability ([1]; first compound 0.3162 µM): 1.11; relative viability ([2]; first compound 0.03162 µM): 0.196; relative viability ([2]; first compound 0.3162 µM): 0.185; relative viability ([3]; first compound 0.01 µM): 0.919; relative viability ([3]; first compound 0.03162 µM): 0.824; relative viability ([3]; first compound 0.3162 µM): 0.813; relative viability ([4]; first compound 0.01 µM): 1.06; relative viability ([4]; first compound 0.03162 µM): 1.01; relative viability ([4]; first compound 0.3162 µM): 1.08; relative viability ([5]; first compound 0.01 µM): 0.51; relative viability ([5]; first compound 0.03162 µM): 0.761; relative viability ([5]; first compound 0.3162 µM): 0.626; relative viability ([6]; first compound 0.01 µM): 1.08; relative viability ([6]; first compound 0.03162 µM): 1.03; relative viability ([6]; first compound 0.3162 µM): 0.943; relative viability ([7]; first compound 0.03162 µM): 0.987; relative viability ([7]; first compound 0.3162 µM): 0.974
